According to PMC6112376, “Comprehensive Analyses and Prioritization of Tox21 10K Chemicals Affecting Mitochondrial Function by in-Depth Mechanistic Studies” (Environmental Health Perspectives, 2018):
Where two headings read alike, the source gives them in different places. Where a SMILES comes first, the peptide text is derived from it. [ ]: non-standard residue; d: D form. Orn = NCCC[C@H](N)C(=O)O

Tests used:
HepG2 cells [1] = details: for IC50: read-out: MMP assays IC50 (µM) HepG2
rat primary hepatocytes [2] = test system: rat primary hepatocytes
HepG2 cells [3] = details: cited from earlier work
rat primary hepatocytes [4] = experiment: MMP assay in rat primary hepatocytes; details: for IC50: read-out: MMP assays IC50 (µM) Rat Hepatocytes
HepG2 cells [5] = experiment: cells; details: Homo sapiens; for IC50: HepG2, read-out: MMP assays IC50 (µM) HepG2; for Emax: HepG2, read-out: MMP assays efficacy (%) HepG2
[6] = read-out: MMP assays IC50 (µM) qHTS-HepG2
[7] = read-out: MMP assays IC50 (µM), qHTS-HepG2

SMILES	MMP assays efficacy (%) HepG2 (HepG2 cells [1])	IC50 (HepG2 cells [1]) [µM]	MMP assays efficacy (%) Rat Hepatocytes (rat primary hepatocytes [2])	MMP assays efficacy (%) qHTS-HepG2 (HepG2 cells [3]) [%]	IC50 (HepG2 cells [3]; [6]) [µM]	MMP assays IC50 (µM) Rat Hepatocytes (rat primary hepatocytes [4])	IC50 (rat primary hepatocytes [4]) [µM]	MMP assays IC50 (µM) HepG2 (HepG2 cells [1])	IC50 (HepG2 cells [3]; [7]) [µM]	IC50 (rat primary hepatocytes [4]; Rattus norvegicus, Hepatocyte) [µM]	IC50 (HepG2 cells [5]) [µM]	Emax (HepG2 cells [5]) [%]
CCCCCc1cc(O)c2c(c1)OC(C)(C)[C@@H]1CCC(C)=C[C@@H]21	-99%	15.5	inactive	-124±8	4.99 ± 1.66	inactive	–	–	–	–	–	–
O=C(N[C@@H]1N=C(c2ccccc2F)c2cccc3c2N(CC3)C1=O)c1cc2ccccc2[nH]1	-81%	13.8	-61±16%	-64±4	8.41	–	17.3	–	–	–	–	–
O=C(Nc1cccc([N+](=O)[O-])c1)c1cc2ccccc2cc1O	-93%	0.28	-89±5%	-91±2	0.24 ± 0.09	–	1.6 ± 0.26	–	–	–	–	–
Cl.Nc1c2ccccc2nc2ccccc12.O	-115%	21.8	-56±22%	-82±4	13.8 ± 1.75	–	8.51 ± 5.35	–	–	–	–	–
Cc1cc(Nc2ccccc2C(=O)O)ccc1Cl	-100%	35.5	-92±11%	-99±8	12.8 ± 0.84	–	22.7 ± 16.2	–	–	–	–	–
O=C1[C@H](CC[C@H](O)c2ccc(F)cc2)[C@@H](c2ccc(O)cc2)N1c1ccc(F)cc1	-112%	–	-52±2%	-81±11	25.6 ± 3.54	–	16.6 ± 20.1	–	–	–	–	–
CC1=C(/C=C/C(C)=C/C=C/C(C)=C/C(=O)Nc2ccc(O)cc2)C(C)(C)CCC1	-92%	4.89	inactive	-100±0	3.4 ± 0.76	inactive	–	–	–	–	–	–
CS(=O)(=O)O.CS(=O)(=O)O.N=C(N)c1ccc(/C=C/c2ccc(C(=N)N)cc2O)cc1	inactive	–	-71±16%	-57±17	–	–	13.6 ± 8.28	inactive	2.81 ± 0.9	–	–	–
CC#C[C@]1(O)CC[C@H]2[C@@H]3CCC4=CC(=O)CCC4=C3[C@@H](c3ccc(N(C)C)cc3)C[C@@]21C	inactive	–	inactive	-97±21	–	inactive	–	inactive	16.1 ± 32.5	–	–	–
Cl.Nc1ccc(Nc2ccccc2)cc1	-54%	28.2	inactive	-69±28	–	inactive	–	–	5.82 ± 6.96	–	–	–
CNC(=O)c1cc(Oc2ccc(NC(=O)Nc3ccc(Cl)c(C(F)(F)F)c3)cc2)ccn1	-92%	1.23	-72±24%	–	–	–	2.25 ± 0.63	–	0.96 ± 0.09	–	–	–
IC(I)=C(I)I [Tetraiodoethene]	–	–	-115±28%	-105±22	–	–	–	–	5.45 ± 1.27	22.6 ± 14.4	6.31	103
CCC[C@@]1(CCc2ccccc2)CC(O)=C([C@H](CC)c2cccc(NS(=O)(=O)c3ccc(C(F)(F)F)cn3)c2)C(=O)O1 [Tipranavir]	–	–	-96±11%	-93±5	–	–	–	–	26.6 ± 4.94	29.2 ± 2.37	17.3	100
COP(=S)(OC)Oc1c(Cl)cc(C)cc1Cl [Tolclofos-methyl]	–	–	-74±66%	-72±22	–	–	–	–	30.6 ± 5.8	31.2 ± 19	39.8	105
Cc1c(Cl)cccc1Nc1ccccc1C(=O)O [Tolfenamic acid]	–	–	-105±5%	-115±7	–	–	–	–	11.9	14.8 ± 4.38	17.3	98
Cc1ccccc1C(=O)Nc1ccc(C(=O)N2CCCC(O)c3cc(Cl)ccc32)c(C)c1 (stereo not shown) [Tolvaptan]	–	–	-67±60%	-65±11	–	–	–	–	17.4 ± 8.01	17.4 ± 2	19.4	50
CC1(C)[C@H](C=C(Cl)Cl)[C@H]1C(=O)OCc1c(F)c(F)cc(F)c1F [Transfluthrin]	–	–	inactive	-89±13	–	inactive	–	–	25 ± 4.09	–	19.4	70

SMILES	MMP assays efficacy (%) HepG2 (HepG2 cells [1])	IC50 (HepG2 cells [1]) [µM]	MMP assays efficacy (%) Rat Hepatocytes (rat primary hepatocytes [2])	MMP assays efficacy (%) qHTS-HepG2 (HepG2 cells [3]) [%]	IC50 (HepG2 cells [3]; [6]) [µM]	MMP assays IC50 (µM) Rat Hepatocytes (rat primary hepatocytes [4])	IC50 (rat primary hepatocytes [4]) [µM]	MMP assays IC50 (µM) HepG2 (HepG2 cells [1])	IC50 (HepG2 cells [3]; [7]) [µM]	IC50 (rat primary hepatocytes [4]; Rattus norvegicus, Hepatocyte) [µM]	IC50 (HepG2 cells [5]) [µM]	Emax (HepG2 cells [5]) [%]
Oc1cc(Cl)ccc1Oc1ccc(Cl)cc1Cl [Triclosan]	–	–	-58±19%	-101±5	–	–	–	–	1.5 ± 0.88	15.2 ± 13.5	6.15	123
CCCN(CCC)c1c([N+](=O)[O-])cc(C(F)(F)F)cc1[N+](=O)[O-] [Trifluralin]	–	–	-53±24%	-53±8	–	–	–	–	46.7 ± 9.14	32.6 ± 23.1	39.8	78
O=P(Oc1ccccc1)(Oc1ccccc1)Oc1ccccc1 [Triphenyl phosphate]	–	–	-56±38%	-98±14	–	–	–	–	1.38 ± 1.48	28.9 ± 9.26	1.26	48
O=P(OCC(Br)CBr)(OCC(Br)CBr)OCC(Br)CBr (stereo not shown) [Tris(2,3-dibromopropyl) phosphate]	–	–	-91±11%	-99±7	–	–	–	–	45.8 ± 8.72	44 ± 10.7	50.1	110
C[C@H]1CCCC(=O)CCC/C=C/c2cc(O)cc(O)c2C(=O)O1 [Zearalenone]	–	–	-68±24%	-110±22	–	–	–	–	4.67 ± 1.77	22 ± 1.79	5.84	115
CCN(CC)C(=S)[S-].CCN(CC)C(=S)[S-].[Zn+2] [Zinc diethyldithiocarbamate]	-63%	–	-95±12%	-70±15	–	–	–	–	–	–	–	–
COC1C(O)CC(OC2CC(Oc3cc4cc5c(c(O)c4c(O)c3C)C(=O)[C@@H](OC3CC(OC4CC(OC6CC(C)(O)C(OC(C)=O)C(C)O6)C(O)C(C)O4)C(O)C(C)O3)[C@H]([C@H](OC)C(=O)[C@@H](O)[C@@H](C)O)C5)OC(C)C2OC(C)=O)OC1C (stereo partly shown) [chromomycin]	–	–	inactive	-84±13	12.3 ± 0.84	inactive	–	–	–	–	35.5	44
CC(C)C[C@@H]1NC(=O)[C@H](CCCN)NC(=O)[C@H](C(C)C)NC(=O)[C@@H]2CCCN2C(=O)[C@@H](Cc2ccccc2)NC(=O)[C@H](CC(C)C)NC(=O)[C@H](CCCN)NC(=O)[C@H](C(C)C)NC(=O)[C@@H]2CCCN2C(=O)[C@@H](Cc2ccccc2)NC1=O [gramicidin, reference compound] (cyclo(L[dF]PV[Orn]L[dF]PV[Orn]))	-121%	–	-112±28%	-86±3	–	–	–	–	0.51 ± 0.42	–	–	–
CC1(C)[C@H](C(=O)O[C@H](C#N)c2cccc(Oc3ccccc3)c2)[C@@H]1/C=C(\Cl)C(F)(F)F [lambda-Cyhalothrin]	–	–	-56±14%	-68±22	–	–	–	–	24.4 ± 1.59	28.2	15.8	58
C[C@]12O[C@H](C[C@]1(O)CO)n1c3ccccc3c3c4c(c5c6ccccc6n2c5c31)CNC4=O [lestaurtinib]	–	–	-92±26%	-84±9	–	–	–	–	4.8 ± 0.97	12.8 ± 2.67	5.62	100
Clc1ccc(C(c2ccccc2Cl)C(Cl)Cl)cc1 (stereo not shown) [o,p'-DDD]	–	–	-45±27%	-112±11	–	–	–	–	19.8 ± 0.94	24.2 ± 14.7	19.4	151
Clc1ccc(C(c2ccccc2Cl)C(Cl)(Cl)Cl)cc1 (stereo not shown) [o,p'-DDT]	–	–	inactive	-86±11	–	inactive	–	–	24 ± 12.1	–	25.1	101
Clc1ccc(C(c2ccc(Cl)cc2)C(Cl)Cl)cc1 [p,p'-DDD]	–	–	-37±12%	-103±18	–	–	–	–	15.2 ± 8.82	42.2 ± 19.8	39.8	108
ClC(Cl)=C(c1ccc(Cl)cc1)c1ccc(Cl)cc1 [p,p'-DDE]	–	–	inactive	-96±25	–	inactive	–	–	25.6 ± 1.71	–	44.7	105
Clc1ccc(C(c2ccc(Cl)cc2)C(Cl)(Cl)Cl)cc1 [p,p'-DDT]	–	–	inactive	-99±12	–	inactive	–	–	24.3 ± 2.74	–	30.8	69
CC(C)[C@@H](Nc1ccc(C(F)(F)F)cc1Cl)C(=O)OC(C#N)c1cccc(Oc2ccccc2)c1 (stereo partly shown) [tau-Fluvalinate]	–	–	inactive	–	–	inactive	–	–	37.2 ± 15.1	–	31.6	58
